pIC50: −log10 of the molar value. The source made the active and inactive calls. The rule behind the calls is not given here.
How the values were obtained:
[1] = test system: CCRF-CEM; assay: Cytotoxicity against human CCRF-CEM cells assessed as reduction in cell viability incubated for 72 hrs by MTS assay; assay type: functional, cell-based
[2] = Stability in human plasma assessed as compound remaining at 2 uM measured at 30 mins by RF-MS analysis; assay type: ADME, cell-free; settings: read-out: Stability
[3] = test system: HCT-116; assay: Antitumor activity in human HCT-116 cells cultured as spheroids assessed as inhibition of cell growth at 10 uM incubated for 3 days; assay type: functional; set-up: scale not given: the % may be the effect or the level left; settings: time 3 day
[4] = Stability in human plasma assessed as compound remaining at 2 uM measured at 120 mins by RF-MS analysis; assay type: ADME, cell-free; settings: read-out: Stability
[5] = Cytotoxicity against human HCT116-p53-null cells assessed as reduction in cell viability incubated for 72 hrs by MTS assay; assay type: functional, cell-based
[6] = test system: K562; assay: Cytotoxicity against human K562 cells assessed as reduction in cell viability incubated for 72 hrs by MTS assay; assay type: functional, cell-based; settings: K562, 72 h
[7] = Stability in human plasma assessed as compound remaining at 2 uM measured at 60 mins by RF-MS analysis; assay type: ADME, cell-free; settings: read-out: Stability
[8] = test system: CEM-DNR; assay: Cytotoxicity against human CEM-DNR cells assessed as reduction in cell viability incubated for 72 hrs by MTS assay; assay type: functional, cell-based
[9] = Stability in human liver microsomes assessed as compound remaining at 2 uM measured at 15 mins in presence of NADPH by RF-MS analysis; assay type: ADME, Microsome; settings: read-out: Stability
[10] = test system: A549; assay: Cytotoxicity against human A549 cells assessed as reduction in cell viability incubated for 72 hrs by MTS assay; assay type: functional, cell-based; settings: A549, 72 h
[11] = Chemical stability in PBS buffer at pH 7.4 assessed as compound remaining measured at 15 mins by RF-MS analysis; assay type: physicochemical; settings: read-out: Stability
[12] = Stability in human liver microsomes assessed as compound remaining at 2 uM measured at 60 mins in presence of NADPH by RF-MS analysis; assay type: ADME, Microsome; settings: read-out: Stability
[13] = Chemical stability in PBS buffer at pH 7.4 assessed as compound remaining measured at 30 mins by RF-MS analysis; assay type: physicochemical; settings: read-out: Stability
[14] = test system: U2OS; assay: Cytotoxicity against human U2OS cells assessed as reduction in cell viability incubated for 72 hrs by MTS assay; assay type: functional, cell-based
[15] = Efflux ratio of apparent permeability across basolateral to apical side over apical to basolateral side in MDCK-MDR1 cells; assay type: ADME, cell-based, Canis lupus familiaris; settings: dog
[16] = Stability in human liver microsomes assessed as compound remaining at 2 uM measured at 30 mins in presence of NADPH by RF-MS analysis; assay type: ADME, Microsome; settings: read-out: Stability
[17] = Cytotoxicity against human K562-Tax cells assessed as reduction in cell viability incubated for 72 hrs by MTS assay; assay type: functional, cell-based
[18] = test system: HeLa; assay: Antitumor activity in human HeLa cells cultured as spheroids assessed as inhibition of spheroid opening at 1 uM incubated for 3 days; assay type: functional, cell-based; settings: time 3.0 day
[19] = Apparent permeability of the compound in MDCK-MDR1 cells at 10 uM incubated for 1 hr by RF-MS analysis; assay type: ADME, cell-based, Canis lupus familiaris; settings: dog
[20] = Cytotoxicity against human MRC5 cells assessed as reduction in cell viability incubated for 72 hrs by MTS assay; assay type: toxicity, cell-based
[21] = Plasma protein binding in human at 10 uM by rapid equilibrium dialysis based RF-MS analysis; assay type: ADME, cell-free; settings: read-out: PB (converted)
[22] = test system: HCT-116; assay: Cytotoxicity against human HCT-116 cells assessed as reduction in cell viability incubated for 72 hrs by MTS assay; assay type: functional, cell-based; settings: HCT-116, 72 h
[23] = Chemical stability in PBS buffer at pH 7.4 assessed as compound remaining measured at 60 mins by RF-MS analysis; assay type: physicochemical; settings: read-out: Stability
[24] = Cytotoxicity against human BJ cells assessed as reduction in cell viability incubated for 72 hrs by MTS assay; assay type: toxicity, cell-based
[25] = Chemical stability in PBS buffer at pH 7.4 assessed as compound remaining measured at 120 mins by RF-MS analysis; assay type: physicochemical; settings: read-out: Stability
[26] = Stability in human plasma assessed as compound remaining at 2 uM measured at 15 mins by RF-MS analysis; assay type: ADME, cell-free; settings: read-out: Stability
[27] = Apparent permeability of the compound in MDCK-MDR1 cells assessed as drug recovery at 10 uM incubated for 1 hr by RF-MS analysis; assay type: ADME, cell-based, Canis lupus familiaris; settings: dog, read-out: Drug recovery
[28] = test system: CCRF-CEM; assay: Induction of apoptosis in human CCRF-CEM cells assessed as accumulation of Bid protein expression at 1 to 5 times IC50 incubated for 24 hrs by Western blot analysis; assay type: functional, cell-based
[29] = test system: CCRF-CEM; assay: Induction of apoptosis in human CCRF-CEM cells assessed as accumulation of Bax protein expression at 1 to 5 times IC50 incubated for 24 hrs by Western blot analysis; assay type: functional, cell-based
[30] = test system: CCRF-CEM; assay: Induction of apoptosis in human CCRF-CEM cells assessed as PARP cleavage at 1 to 5 times IC50 incubated for 24 hrs by Western blot analysis; assay type: functional, cell-based
[31] = test system: CCRF-CEM; assay: Induction of apoptosis in human CCRF-CEM cells assessed as viable cells at 1 time IC50 incubated for 24 hrs by Annexin V and propidium iodide staining based flow cytometry analysis […]; assay type: functional
[32] = test system: CCRF-CEM; assay: Induction of apoptosis in human CCRF-CEM cells assessed as early apoptotic cells at 1 time IC50 incubated for 24 hrs by Annexin V and propidium iodide staining based flow cytometry analysis (reference value: […]); assay type: functional
[33] = test system: CCRF-CEM; assay: Induction of apoptosis in human CCRF-CEM cells assessed as late apoptotic cells at 1 time IC50 incubated for 24 hrs by Annexin V and propidium iodide staining based flow cytometry analysis (reference value: […]); assay type: functional
[34] = test system: CCRF-CEM; assay: Induction of apoptosis in human CCRF-CEM cells assessed as decrease in c-Myc expression at 1 to 5 times IC50 incubated for 24 hrs by Western blot analysis; assay type: functional, cell-based
[35] = test system: CCRF-CEM; assay: Induction of apoptosis in human CCRF-CEM cells assessed as viable cells at 5 times IC50 incubated for 24 hrs by Annexin V and propidium iodide staining based flow cytometry analysis […]; assay type: functional
[36] = test system: CCRF-CEM; assay: Induction of apoptosis in human CCRF-CEM cells assessed as early apoptotic cells at 5 times IC50 incubated for 24 hrs by Annexin V and propidium iodide staining based flow cytometry analysis […]; assay type: functional
[37] = test system: CCRF-CEM; assay: Induction of apoptosis in human CCRF-CEM cells assessed as necrotic cells at 5 times IC50 incubated for 24 hrs by Annexin V and propidium iodide staining based flow cytometry analysis […]; assay type: functional
[38] = test system: CCRF-CEM; assay: Induction of apoptosis in human CCRF-CEM cells assessed as late apoptotic cells at 5 times IC50 incubated for 24 hrs by Annexin V and propidium iodide staining based flow cytometry analysis […]; assay type: functional
[39] = test system: CCRF-CEM; assay: Induction of apoptosis in human CCRF-CEM cells assessed as increase in Noxa expression at 1 to 5 times IC50 incubated for 24 hrs by Western blot analysis; assay type: functional, cell-based
[40] = test system: CCRF-CEM; assay: Induction of apoptosis in human CCRF-CEM cells assessed as necrotic cells at 1 time IC50 incubated for 24 hrs by Annexin V and propidium iodide staining based flow cytometry analysis (reference value: 0.0%); assay type: functional

remaining at 0.5 h, 2 µM [2] [%]	remaining at 2 h, 2 µM [4] [%]	remaining at 1 h, 2 µM [7] [%]	remaining at 0.25 h, 2 µM [9] [%]	remaining at 0.25 h [11] [%]	remaining at 1 h, 2 µM [12] [%]	remaining at 0.5 h [13] [%]	efflux ratio [15]	remaining at 0.5 h, 2 µM [16] [%]	Papp at 1 h, 10 µM [19] [×10⁻⁶ cm/s]	Structure (SMILES)	pIC50 [1]	pIC50 [5]	pIC50 [6]	pIC50 [8]	pIC50 [10]	pIC50 [14]	pIC50 [17]	IC50 at 72 h [20] [µM]	pIC50 [22]	IC50 at 72 h [24] [µM]	further results
88.7	82.3	87	95.6	97.1	66.6	92.5	3.77	82.7	0.32	C=C(C=O)[C@@H]1CC[C@]2(C(=O)OCc3cn([C@H]4O[C@H](COC(C)=O)[C@@H](OC(C)=O)[C@H](OC(C)=O)[C@H]4OC(C)=O)nn3)CC[C@]3(C)[C@H](CC[C@@H]4[C@@]5(C)CC[C@H](O)C(C)(C)[C@@H]5CC[C@]43C)[C@@H]12	6.22	5.77	5.85	5.80	5.74	5.77	5.80	1.7	5.80	1.8	Activity [3]: 100%; Activity [18]: Active; fraction unbound at 10 µM [21]: 0.0015; remaining at 1 h [23]: 89.2%; remaining at 2 h [25]: 83.8%; remaining at 0.25 h, 2 µM [26]: 93.9%; recovery at 1 h, 10 µM [27]: 103%
–	–	–	–	–	–	–	–	–	–	C=C(C=O)[C@@H]1CC[C@]2(C(=O)OCc3cn([C@H]4O[C@H](CO)[C@@H](O)[C@H](O)[C@H]4O)nn3)CC[C@]3(C)[C@H](CC[C@@H]4[C@@]5(C)Cc6nccnc6C(C)(C)[C@@H]5CC[C@]43C)[C@@H]12 (stereo in doubt)	–	–	–	–	–	–	–	–	–	–	Activity [28]: Active; Activity [29]: Active; Activity [30]: Active; Activity [31]: 86.9%; Activity [32]: 4.9%; Activity [33]: 3.3%; Activity [34]: Active; Activity [35]: 0.6%; Activity [36]: 41.5%; Activity [37]: 0.1%; Activity [38]: 57.7%; Activity [39]: Active; Activity [40]: 5%
91.2	87.1	88	99.3	98.9	97.8	99.5	7.1	98.3	1.67	C=C(C)[C@@H]1CC[C@]2(C(=O)OCc3cn([C@H]4O[C@H](COC(C)=O)[C@@H](OC(C)=O)[C@H](OC(C)=O)[C@H]4OC(C)=O)nn3)CC[C@]3(C)[C@H](CC[C@@H]4[C@@]5(C)Cc6nccnc6C(C)(C)[C@@H]5CC[C@]43C)[C@@H]12 (stereo in doubt)	< 4.30	< 4.30	< 4.30	4.31	< 4.30	< 4.30	< 4.30	> 50	< 4.30	> 50	fraction unbound at 10 µM [21]: 0.107; remaining at 1 h [23]: 92.1%; remaining at 2 h [25]: 92.9%; remaining at 0.25 h, 2 µM [26]: 98.7%; recovery at 1 h, 10 µM [27]: 87.7%
–	–	–	–	–	–	–	–	–	–	C=C(C)[C@@H]1CC[C@]2(C(=O)OCc3oc(=O)oc3C)CC[C@]3(C)[C@H](CC[C@@H]4[C@@]5(C)CCC(=O)C(C)(C)[C@@H]5CC[C@]43C)[C@@H]12	5.64	4.72	6.06	5.04	5.02	4.66	4.96	47	4.68	> 50	Activity [28]: Active; Activity [29]: Active; Activity [30]: Active; Activity [31]: 89.8%; Activity [32]: 2%; Activity [33]: 1.9%; Activity [35]: 85.3%; Activity [36]: 7.1%; Activity [37]: 1.1%; Activity [38]: 6.5%; Activity [39]: Active; Activity [40]: 6.4%
92.2	83.4	87.8	99	98.5	97	92.7	5.61	98.8	0.28	C=C(C)[C@@H]1CC[C@]2(C(=O)OCc3cn([C@H]4O[C@H](COC(C)=O)[C@@H](OC(C)=O)[C@H](OC(C)=O)[C@H]4OC(C)=O)nn3)CC[C@]3(C)[C@H](CC[C@@H]4[C@@]5(C)CC[C@H](O)C(C)(C)[C@@H]5CC[C@]43C)[C@@H]12	< 4.30	< 4.30	< 4.30	< 4.30	< 4.30	< 4.30	< 4.30	> 50	< 4.30	> 50	fraction unbound at 10 µM [21]: 0.0044; remaining at 1 h [23]: 82.3%; remaining at 2 h [25]: 77.9%; remaining at 0.25 h, 2 µM [26]: 94.3%; recovery at 1 h, 10 µM [27]: 77%
–	–	–	–	–	–	–	–	–	–	C=C(C)[C@@H]1CC[C@]2(C(=O)OCc3oc(=O)oc3C)CC[C@]3(C)[C@H](CC[C@@H]4[C@@]5(C)CC[C@H](O)C(C)(C)[C@@H]5CC[C@]43C)[C@@H]12	5.35	4.82	5.08	4.85	4.89	4.72	4.92	41	4.77	44	Activity [28]: Active; Activity [29]: Active; Activity [30]: Active; Activity [31]: 87.4%; Activity [32]: 2.1%; Activity [33]: 1.9%; Activity [34]: Active; Activity [35]: 83.7%; Activity [36]: 6.1%; Activity [37]: 6.8%; Activity [38]: 3.4%; Activity [39]: Active; Activity [40]: 8.7%
–	–	–	–	–	–	–	–	–	–	C=C(C)[C@@H]1CC[C@]2(C(=O)OCc3oc(=O)oc3C)CC[C@]3(C)[C@H](CC[C@@H]4[C@@]5(C)Cc6cccnc6C(C)(C)[C@@H]5CC[C@]43C)[C@@H]12	4.46	< 4.30	7.43	4.32	4.30	< 4.30	4.31	> 50	< 4.30	> 50	–
